Residue numbers refer to the chain shown, from its start.
What was measured:
[1] = molecular target: T1, ZZZ3 ZZ domain (a.a. 800–903) (Homo sapiens, UniProt Q8IYH5); assay: Microscale thermophoresis (MST) displacement binding assay; conditions: displacement of 80 nM fluorescein-labeled H3 (1–12) from 5 μM ZZ by unlabeled peptide; 20 mM Tris–HCl pH 7.0, 150 mM NaCl, 3 mM DTT; H3 triplicates, H3K4ac duplicates
T1 construct: The samples containing 1.0 µM ZZZ3 ZZ (aa 800–903); GST (N, cleaved yes); made in house; host or cells: E. coli BL21 (DE3) RIL
T1 sequence (Q8IYH5 800-903): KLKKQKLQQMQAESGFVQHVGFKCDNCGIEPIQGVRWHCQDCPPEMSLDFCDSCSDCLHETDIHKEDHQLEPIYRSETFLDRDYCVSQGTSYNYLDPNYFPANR
Description: The MST experiments were performed using a Monolith NT.115 instrument (NanoTemper) as described previously. All experiments were performed with the purified ZZ domain (a.a. 800-903) in a buffer containing 20 mM Tris-HCl (pH 7.0), 150 mM NaCl, and 3 mM DTT. The final concentration of the C-terminal fluorescein-labeled histone H3 peptide (1-12, KE BIOCHEM) was kept at 80 nM. Dissociation constants for the interaction between ZZ with unlabeled peptides H3 (1-12) and H3K4ac (1-12) were measured using a displacement assay in which increasing amounts of unlabeled peptides were added into a preformed ZZ:H3-FAM complex prepared by supplementing 5 μM ZZ into each sample. The measurements were performed at 50% LED and 40% MST power with 3-s laser on time and 22 s off time. For all measurements, samples were loaded into premium capillaries and 1400-1700 counts were obtained for the fluorescence intensity. The Kd and IC50 values were determined with the MO.Affinity Analysis software (NanoTemper Technologies GmbH), using two independent MST measurements. […] The Kd value is the dissociation constant of labeled H3 peptide determined in the direct binding experiment described above. […]

ZZZ3 ZZ domain D824A = molecular target: T2, ZZZ3 ZZ domain D824A (Homo sapiens, UniProt Q8IYH5, D824A); assay: 1H,15N HSQC NMR titration of ZZZ3 ZZ D824A mutant with histone peptides; assay type: binding; conditions: measured by NMR (1H,15N HSQC titration); 0.1 mM 15N-labeled protein; 298 K
T2 construct: GST (N, cleaved yes); made in house; host or cells: E. coli BL21 (DE3) RIL
T2 sequence (Q8IYH5 818-877 D824A limits assumed): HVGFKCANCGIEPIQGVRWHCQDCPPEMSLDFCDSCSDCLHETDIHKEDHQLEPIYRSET
Description: (§1) In total, 0.1 mM uniformly ^15N-labeled WT or mutated ZZZ3-ZZ was used in NMR titrations. Binding was characterized by monitoring chemical shift changes in the proteins induced by histone peptides (synthesized by SynPeptide). Dissociation constant (Kd) was determined by applying PCA to the ^1H,^15N HSQC titration spectra in TREND[30]. Each binding isotherm was fitted using the following equation: pbound=∣∣PC1∣∣=L+P+Kd-L+P+Kd^2-4[P][L]/2[P] where [L] is the concentration of the histone peptide, [P] is the concentration of ZZ, pbound is the fraction of protein bound to a ligand, and PC1 is the normalized principal component, obtained by TREND, that indicates the change in the population of the bound state. The errors of the Kd value are the fitting uncertainties from nonlinear least-squares fits in Kaleidagraph.

[2] = molecular target: T3, ZZZ3 ZZ domain (aa 800–903), WT (Homo sapiens, UniProt Q8IYH5); assay: Tryptophan fluorescence binding of histone peptides to WT ZZZ3 ZZ domain; conditions: for Kd: 1.0 µM ZZZ3 ZZ (aa 800–903), 25 °C, 20 mM Tris–HCl pH 7.2, 150 mM NaCl, 1 mM DTT, mean ± SD of three experiments
T3 construct: The samples containing 1.0 µM ZZZ3 ZZ (aa 800–903); GST (N, cleaved yes); made in house; host or cells: E. coli BL21 (DE3) RIL
T3 sequence (Q8IYH5 800-903): T1 sequence (Q8IYH5 800-903)
Description: Spectra were recorded at 25 °C on a Fluoromax-3 spectrofluorometer (HORIBA). The samples containing 1.0 µM ZZZ3 ZZ (aa 800–903) and progressively increasing concentrations of the histone peptide were excited at 295 nm. Experiments were performed in buffer containing 20 mM Tris–HCl (pH 7.2), 150 mM NaCl, and 1 mM DTT, with the exception of experiments shown in Supplementary Fig. 3b, which were performed in 100 mM NaCl buffer. Emission spectra were recorded over a range of wavelengths between 330 and 360 nm with a 0.5-nm step size and a 1-s integration time and averaged over three scans. The Kd values were determined using a nonlinear least-squares analysis and the equation: ΔI=ΔImaxL+P+Kd-L+P+Kd^2-4[P][L]/2[P] where [L] is the concentration of the histone peptide, [P] is the concentration of ZZZ3 ZZ domain, ΔI is the observed change of signal intensity, and ΔImax is the difference in signal intensity of the free and bound states of the ZZ domain. The Kd value was averaged over three separate experiments, with error calculated as the standard deviation between the runs.

ZZZ3 ZZ domain D848A = molecular target: T4, ZZZ3 ZZ domain D848A (Homo sapiens, UniProt Q8IYH5, D848A); assay: 1H,15N HSQC NMR titration of ZZZ3 ZZ D848A mutant with histone peptides; assay type: binding; conditions: measured by NMR (1H,15N HSQC titration); 0.1 mM 15N-labeled protein; 298 K
T4 construct: GST (N, cleaved yes); made in house; host or cells: E. coli BL21 (DE3) RIL
T4 sequence (Q8IYH5 818-877 D848A limits assumed): T2 sequence (Q8IYH5 818-877 D824A limits assumed) with A7D, D31A
Description: as §1

ZZZ3 ZZ domain = molecular target: T5, ZZZ3 ZZ domain (Homo sapiens, UniProt Q8IYH5); assay: Binding of non-H3-like peptide to ZZZ3 ZZ domain (Supplementary Fig. 2i); conditions: N-terminal Ala1 added to a non-H3-like peptide
T5 construct: made in house; host or cells: E. coli BL21 (DE3) RIL
T5 sequence (Q8IYH5 818-877 limits assumed): T2 sequence (Q8IYH5 818-877 D824A limits assumed) with A7D

ATAC complex = molecular target: T6, ATAC complex (Homo sapiens, UniProt Q8IYH5); assay: In vitro HAT assay of purified ATAC complex with histone peptides or mononucleosomes; assay type: biochemical; conditions: 1 μg peptide, 0.1 mM acetyl-CoA, 37 °C, western blot
T6 construct: expressed in transfected cells; nuclear extract, M2-agarose, eluted with triple-FLAG peptide
Description: Nuclear extracts were prepared from stable cells using a standard protocol. Briefly, approximately 2 mg of nuclear extract was incubated with 25 µl of M2-agarose beads (Sigma) overnight at 4 °C. The beads were washed four times with high-salt wash buffer (10 mM HEPES, pH 7.9, 25% glycerol, 1.5 mM MgCl2, 300 mM KCl, and 0.1% Triton X-100), followed by two washes with low-salt wash buffer (10 mM HEPES, pH 7.9, 25% glycerol, 1.5 mM MgCl2, 100 mM KCl, and 0.1% Triton X-100). Elution was achieved by two consecutive incubations of the beads with 0.5 mg/ml triple-FLAG peptide (Sigma) in 200 µl of low-salt wash buffer. All buffers contained phenylmethylsulfonyl fluoride and protease inhibitor cocktail (Roche).
Purified complexes were incubated for indicated times at 37 °C with peptides (1 μg) or mononucleosomes (10 μg) and 0.1 mM acetyl-CoA in HAT reaction buffer (50 mM Tris, pH 8.0, 0.1 mM EDTA, 10% glycerol, 1 mM PMSF, and 1 mM DTT) in a total volume of 50 μL. Reactions were quenched by flash-freezing in liquid nitrogen and then analyzed by SDS-PAGE and western blot. Uncropped western blots are shown in Supplementary Figure 11.

Kd [1] [µM] | Kd, ZZZ3 ZZ domain D824A (ZZZ3 ZZ domain D824A) | Kd [2] [µM] | HAT activity of the ATAC complex on the peptide substrate (ATAC complex) | Compound | further results
5.5 | No binding | 8.2 | – | CC(=O)NCCCC[C@H](NC(=O)[C@@H](NC(=O)[C@H](CCCNC(=N)N)NC(=O)[C@H](C)N)[C@@H](C)O)C(=O)N[C@@H](CCC(N)=O)C(=O)N[C@H](C(=O)N[C@@H](C)C(=O)N[C@@H](CCCNC(=N)N)C(=O)N[C@@H](CCCCN)C(=O)N[C@@H](CO)C(=O)N[C@H](C(=O)NCC(=O)O)[C@@H](C)O)[C@@H](C)O [H3K4ac] | Fold enhancement of ZZ association over the unmodified H3 peptide ([2]; Kd 8.2 μM versus 29 μM): ~ 3 fold
– | – | – | – | C[C@H](N)C(=O)N[C@@H](CCCNC(=N)N)C(=O)N[C@H](C(=O)N[C@@H](CCCC[N+](C)(C)C)C(=O)N[C@@H](CCC(N)=O)C(=O)N[C@H](C(=O)N[C@@H](C)C(=O)N[C@@H](CCCNC(=N)N)C(=O)N[C@@H](CCCCN)C(=O)N[C@@H](CO)C(=O)N[C@H](C(=O)NCC(=O)O)[C@@H](C)O)[C@@H](C)O)[C@@H](C)O [H3K4me3] | Kd ([2]; SD): 22 ± 6 µM
18 | No binding | 29 | – | C[C@H](N)C(=O)N[C@@H](CCCNC(=N)N)C(=O)N[C@H](C(=O)N[C@@H](CCCCN)C(=O)N[C@@H](CCC(N)=O)C(=O)N[C@H](C(=O)N[C@@H](C)C(=O)N[C@@H](CCCNC(=N)N)C(=O)N[C@@H](CCCCN)C(=O)N[C@@H](CO)C(=O)N[C@H](C(=O)NCC(=O)O)[C@@H](C)O)[C@@H](C)O)[C@@H](C)O [H3] | Kd, ZZZ3 ZZ domain D848A (ZZZ3 ZZ domain D848A): No binding
– | – | – | – | AGSGSG [non-H3-like peptide with an added N-terminal Ala1] | Binding to the ZZZ3 ZZ domain (ZZZ3 ZZ domain): insufficient to bind
– | – | – | abolishes the HAT activity | H3 (3–33): biotinylated histone H3 peptide lacking the first two amino acids, HAT substrate | –
– | – | – | better substrate | Lys4-acetylated H3 peptide: Lys4-acetylated H3 (1-22) peptide used as HAT substrate | –

Source: publication PMC6138639, “The ZZ-type zinc finger of ZZZ3 modulates the ATAC complex-mediated histone acetylation and gene activation” (Nature Communications, 2018)
